Results as given in US12201626B2, “Bifunctional compositions for the treatment of cancer” (ARMACEUTICA, INC., priority 2018, dated 2025).
Read-outs that look alike come from different tables or passages of the source. Where a SMILES comes first, the peptide text is derived from it. The star is where a group is joined. Cbz = O=C(OCc1ccccc1)*

What was measured:
[1] = test system: plasmid dsDNA (pCMV-dR8.91); assay: DNA mobility-shift assay (agarose gel); type: binding; set-up: DNA mobility shift: unit of the concentration uncertain
Procedure: Typically, an experimental compound intercalating or binding to double stranded (ds) DNA will increase the molecular mass resulting from forming complexes, decreasing its electrophoretic mobility in an agarose gel, as compared with untreated dsDNA. To explore the potential interaction between PND and dsDNA, a DNA mobility-shift assay was conducted. Each reaction mixture was of 10 μl total volume in PBS pH 7.4. Both PND (Sigma-Aldrich) and quinacrine (Sigma-Aldrich) were tested with three individual concentrations of 1 μM, 0.5 μM or 0.25 μM, respectively. To each reaction mixture, 100 ng of plasmid dsDNA (pCMV-dR8.91; Addgene, Cambridge, MA) was added and the mixture was then incubated for 30 min at 37° C. and stopped by adding 2 μl of 6× gel loading buffer and placed on ice. The potential binding interaction between both PND and quinacrine with dsDNA were analyzed by using 1% (w/v) agarose-gel electrophoresis dissolved in TAE buffer (0.04 M Tris base, 0.04 M acetate and 0.001 M EDTA) pH 8.0. To stain the dsDNA complexes, Ethidium bromide was added to the agarose gel throughout the electrophoresis process at a concentration of 0.5 μg/ml. DNA migration was visualized by utilizing a gel documentation system and pictures were captured by using a UV-light transilluminator (Alpha Innotech, San Leandro, CA). The well-known DNA intercalator fluorescent compound, propidium iodide (PI), was included as positive controls at 1 μg per reaction. As a control, untreated plasmid DNA was included to determine its normal electrophoretic mobility in the gel.

[2] = test system: MDA-MB-231 breast cancer line; assay: cells; type: cell-based, human
Procedure: PND was added to cultures of the MDA-MB-231 breast cancer line 24 hours after the cells were treated with a selection of known commercial chemotherapeutic drugs, before the cells were analyzed for cell death. Each of the drugs are known to have serious side-effects at the does commonly administered for the treatment of cancer. The dose of the chemotherapeutic drugs was reduced to one half, one fourth, one eighth, and one sixteenth of the initial dose; while the dose of PND was kept the same. The effect of these combinational therapies was measured by the concentration of each compound needed to be cytotoxic to at least 50 percent of cancer cells (CC50).

HL-60 cells = assay: Phosphatidylserine externalization, annexin V-FITC/PI flow cytometry; type: cell-based, human; conditions: positive control, 24 h
Procedure: (§1) To determine whether cell death induced by PND was occurring through apoptosis or necrosis, MDA-MB-231 and HL-60 cells were stained with annexin V-FITC and PI and monitored via flow cytometry. Cells were seeded in 24-well plates at a density of 100,000 for adherent MDA-MB-231 and 200,000 HL-60 cells in 1 ml of culture media. After overnight incubation, cells were treated with PND, and incubated for an additional 24 h. For MDA-MB-231 cells, unattached cells were harvested in an ice-cold tube, while adhered cells were detached by using HyQtase (Thermo Fisher) and incubated for around 5 min at 37° C. Both unattached and detached cells harvested from each individual well were washed with ice-cold PBS and centrifuged at 260×g for 5 min. HL-60 were centrifuged directly after the incubation period as they grow in suspension. Cells were then stained with a mixture of annexin V-FITC and PI in 100 μl of binding buffer and incubated on ice in the dark for 15 minutes, following the manufacturer's instructions (Beckman Coulter). Lastly, the cells were resuspended by the addition of 400 μl of ice-cold binding buffer and analysed by flow cytometry (Cytomics FC500; Beckman Coulter). For this series of experiments, cells treated with PBS, as solvent control; treated with H2O2, as a positive control of cytotoxicity; and untreated were included and processed in parallel. For each sample, 10,000 events/cells were collected and analysed using CXP software (Beckman Coulter). Both the experimental samples and their controls were processed similarly and assessed in triplicate. The sum of both early and late stages of apoptosis was calculated to obtain the total percentage of apoptotic cells.

MDA-MB-231 cells = assay: as above; type: cell-based, human; conditions: positive control, 24 h
Procedure: as §1

[3] = Homo sapiens, MDA-MB-231, read-out: initial dose (CC50)

With `CCN(CC)CCCC(C)Nc1c2ccc(Cl)cc2nc2ccc(OC)cc12` (stereo not shown) [quinacrine] the DNA mobility shift ([1]; 0.5 and 0.25 mM, 100 ng plasmid DNA) was “clear retardation mobility of the DNA”, the DNA mobility shift ([1]; 1 (unit uncertain), 100 ng plasmid DNA, 30 min 37° C.) was “maximum retardation of DNA mobility” and the DNA degradation ([1]; fragments smaller than free supercoiled DNA) was “did not exhibit any DNA degradation activity”.

For `CC[N+](C)(CC)CCC[n+]1c(-c2ccccc2)c2cc(N)ccc2c2ccc(N)cc21.[I-].[I-]` [PI, propidium iodide], the DNA mobility shift ([1]; positive control, 1 μg per reaction) was “provoked retardation of the DNA mobility”.

`N.N.[Cl][Pt][Cl]` [cisplatin] showed a CC50 [2] of 95400 nM.

In the case of `Nc1ccn([C@@H]2O[C@H](CO)[C@@H](O)C2(F)F)c(=O)n1` [gemcitabin], the CC50 [2, 3] is reported as 440 nM.

In the case of `OO` [H2O2, hydrogen peroxide], the “mode of cytotoxic effect (apoptosis or necrosis)” value (HL-60 cells) is reported as “necrosis” and the “mode of cytotoxic effect (apoptosis or necrosis)” value (MDA-MB-231 cells) is reported as “apoptosis”.

Compound `CC(C)C[C@H](NC(=O)[C@H](Cc1ccccc1)NC(=O)c1cnccn1)B(O)O` [bortezomib] has a CC50 [2, 3] of 10 nM.

`CC(C)C[C@@H](C=O)NC(=O)[C@H](CC(C)C)NC(=O)[C@H](CC(C)C)NC(=O)OCc1ccccc1` [MG132] (Cbz-Leu-Leu-Leu-aldehyde) was tested, and the CC50 [2, 3] was 500 nM.
